Laboratory results reported in patent publication US9663479B2, “γ-aminobutyric acid (GABA) analogues for the treatment of pain and other disorders” (Novassay S.A., priority 2013, dated 2017).

biological target: α2δ-1 sub-unit (Homo sapiens (Human), UniProt P54289); assay: not given; conditions: read-out: Literature IC50 nM; binding to α2δ-1 sub-unit, literature value; cited from earlier work
Sequence (P54289 whole entry, looked up): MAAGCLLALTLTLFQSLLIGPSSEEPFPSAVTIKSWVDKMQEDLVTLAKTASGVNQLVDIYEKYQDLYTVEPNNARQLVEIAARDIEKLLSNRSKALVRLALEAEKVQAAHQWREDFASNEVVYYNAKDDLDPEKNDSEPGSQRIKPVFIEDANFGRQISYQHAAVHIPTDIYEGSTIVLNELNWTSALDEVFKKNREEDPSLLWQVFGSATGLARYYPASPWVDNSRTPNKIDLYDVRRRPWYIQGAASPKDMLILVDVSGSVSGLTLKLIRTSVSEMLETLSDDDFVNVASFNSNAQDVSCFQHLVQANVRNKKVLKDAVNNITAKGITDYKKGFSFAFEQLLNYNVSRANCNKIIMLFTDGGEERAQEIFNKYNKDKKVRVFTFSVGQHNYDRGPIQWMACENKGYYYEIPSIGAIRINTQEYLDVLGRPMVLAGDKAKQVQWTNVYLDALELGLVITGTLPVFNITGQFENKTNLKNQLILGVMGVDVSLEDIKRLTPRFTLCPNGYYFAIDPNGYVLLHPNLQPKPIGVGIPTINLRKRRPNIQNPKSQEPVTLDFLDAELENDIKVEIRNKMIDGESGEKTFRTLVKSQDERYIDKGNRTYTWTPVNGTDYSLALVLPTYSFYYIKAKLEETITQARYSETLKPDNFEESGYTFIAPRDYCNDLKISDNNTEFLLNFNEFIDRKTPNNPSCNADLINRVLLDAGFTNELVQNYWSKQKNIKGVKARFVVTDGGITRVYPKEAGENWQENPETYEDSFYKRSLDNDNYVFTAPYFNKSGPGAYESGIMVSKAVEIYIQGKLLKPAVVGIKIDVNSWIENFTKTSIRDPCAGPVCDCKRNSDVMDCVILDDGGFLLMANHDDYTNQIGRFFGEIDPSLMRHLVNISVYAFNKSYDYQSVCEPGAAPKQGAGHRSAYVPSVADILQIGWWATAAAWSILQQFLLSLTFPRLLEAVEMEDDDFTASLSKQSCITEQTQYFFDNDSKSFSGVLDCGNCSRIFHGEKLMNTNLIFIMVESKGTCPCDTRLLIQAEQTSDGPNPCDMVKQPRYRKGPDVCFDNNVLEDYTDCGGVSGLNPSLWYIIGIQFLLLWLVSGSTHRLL

Q: With `CC(C)CC(CN)CC(=O)O` (stereo not drawn) [Pregabalin, reference compound] as the compound, how does the IC50 read?
A: 80 nM

biological target: Human Cav1.2/β3/α2δ-1 Calcium Channel Membranes (α2δ-1 subunit) (Homo sapiens (Human), UniProt P54289); assay: [3H]gabapentin scintillation proximity binding assay on calcium channel α2δ-1 subunit membranes; conditions: not given
Method: This test was carried out in the following way.
Calcium Channel α2δ-1 Subunit Binding Assay
Human Cav1.2/β3/α2δ-1 Calcium Channel Membranes (Chantest) were thawed on ice, aliquotted and stored at −80° C. for subsequent use. Membranes were diluted to 200 μg/ml (3 μg/well final assay concentration (FAC)) in assay buffer (10 mM HEPES (Sigma), (pH7.4)). The [^3H]GBP (Perkin Elmer) stock solution was stored at −20° C. [^3H]GBP was diluted to 40 nM (10 nM FAC) in assay buffer. SPA beads (Perkin Elmer) were re-suspended at 100 mg/ml in 10 mM HEPES (pH 7.4). Beads were diluted to 40 mg/ml (0.6 mg/well FAC) in assay buffer. Nonspecific binding (NSB) was generated using an excess of pregabalin (Tocris). Pregabalin was solubilized in Milli-Q H2O at 10 mM. 10 mM pregabalin was diluted to 400 μM (100 μM FAC) in assay buffer.
Compounds were diluted to […] then half log diluted. These were then diluted 1:100 in assay buffer to a 4× assay concentration (1 μM FAC top dilution).
SPA beads 15 μl; membranes 15 μl; pregabalin or assay buffer/test compound 15 μl and [^3H]GBP 15 μl were added to a white 96 well isoplate, (Perkin Elmer). The assay plate was sealed and mixed for 10 s on a plate shaker then placed into a plate rack and slotted into the reader stacker.
The NSB values obtained by adding 100 μM pregabalin were subtracted from values obtained for compounds to generate a specific binding value. Specific binding in counts per minute (cpm) were plotted against compound concentration (M) and fitted using a 4 parameter logistic equation.

Sequence of Human Cav1.2/β3/α2δ-1 Calcium Channel Membranes (α2δ-1 subunit) (P54289 25-956): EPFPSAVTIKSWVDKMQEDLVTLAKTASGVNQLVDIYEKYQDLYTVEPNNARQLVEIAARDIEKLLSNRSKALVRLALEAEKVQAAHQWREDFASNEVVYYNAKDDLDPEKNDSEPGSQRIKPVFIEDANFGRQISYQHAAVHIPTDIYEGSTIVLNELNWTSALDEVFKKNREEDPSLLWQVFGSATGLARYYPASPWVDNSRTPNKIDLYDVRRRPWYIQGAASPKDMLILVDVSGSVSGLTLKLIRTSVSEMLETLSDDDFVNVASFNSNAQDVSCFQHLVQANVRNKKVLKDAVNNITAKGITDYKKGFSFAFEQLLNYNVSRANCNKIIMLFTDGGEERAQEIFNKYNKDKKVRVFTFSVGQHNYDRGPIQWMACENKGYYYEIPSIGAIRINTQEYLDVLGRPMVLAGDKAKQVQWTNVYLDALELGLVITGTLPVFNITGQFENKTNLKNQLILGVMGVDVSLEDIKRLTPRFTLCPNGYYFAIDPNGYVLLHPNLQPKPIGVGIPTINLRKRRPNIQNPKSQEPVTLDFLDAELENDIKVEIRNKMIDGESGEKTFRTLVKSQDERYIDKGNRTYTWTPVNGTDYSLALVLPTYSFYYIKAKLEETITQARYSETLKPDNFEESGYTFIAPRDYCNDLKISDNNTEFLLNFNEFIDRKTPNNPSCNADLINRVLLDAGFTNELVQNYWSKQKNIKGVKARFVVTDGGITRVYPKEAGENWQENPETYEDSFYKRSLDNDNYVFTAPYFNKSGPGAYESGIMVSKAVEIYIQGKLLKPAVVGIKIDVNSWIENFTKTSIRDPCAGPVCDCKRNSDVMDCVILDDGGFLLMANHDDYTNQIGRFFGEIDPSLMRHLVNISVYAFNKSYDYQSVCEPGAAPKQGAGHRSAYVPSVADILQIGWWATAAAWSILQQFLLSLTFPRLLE
Sequence of Human Cav1.2/β3/α2δ-1 Calcium Channel Membranes (α2δ-1 subunit) (P54289 957-1103): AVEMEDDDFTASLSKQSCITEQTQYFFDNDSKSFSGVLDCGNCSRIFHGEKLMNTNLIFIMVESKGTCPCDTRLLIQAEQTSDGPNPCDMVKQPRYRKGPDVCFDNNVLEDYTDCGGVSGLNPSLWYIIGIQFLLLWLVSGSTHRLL
Sequence of Human Cav1.2/β3/α2δ-1 Calcium Channel Membranes (α2δ-1 subunit) (Q13936 whole entry partner): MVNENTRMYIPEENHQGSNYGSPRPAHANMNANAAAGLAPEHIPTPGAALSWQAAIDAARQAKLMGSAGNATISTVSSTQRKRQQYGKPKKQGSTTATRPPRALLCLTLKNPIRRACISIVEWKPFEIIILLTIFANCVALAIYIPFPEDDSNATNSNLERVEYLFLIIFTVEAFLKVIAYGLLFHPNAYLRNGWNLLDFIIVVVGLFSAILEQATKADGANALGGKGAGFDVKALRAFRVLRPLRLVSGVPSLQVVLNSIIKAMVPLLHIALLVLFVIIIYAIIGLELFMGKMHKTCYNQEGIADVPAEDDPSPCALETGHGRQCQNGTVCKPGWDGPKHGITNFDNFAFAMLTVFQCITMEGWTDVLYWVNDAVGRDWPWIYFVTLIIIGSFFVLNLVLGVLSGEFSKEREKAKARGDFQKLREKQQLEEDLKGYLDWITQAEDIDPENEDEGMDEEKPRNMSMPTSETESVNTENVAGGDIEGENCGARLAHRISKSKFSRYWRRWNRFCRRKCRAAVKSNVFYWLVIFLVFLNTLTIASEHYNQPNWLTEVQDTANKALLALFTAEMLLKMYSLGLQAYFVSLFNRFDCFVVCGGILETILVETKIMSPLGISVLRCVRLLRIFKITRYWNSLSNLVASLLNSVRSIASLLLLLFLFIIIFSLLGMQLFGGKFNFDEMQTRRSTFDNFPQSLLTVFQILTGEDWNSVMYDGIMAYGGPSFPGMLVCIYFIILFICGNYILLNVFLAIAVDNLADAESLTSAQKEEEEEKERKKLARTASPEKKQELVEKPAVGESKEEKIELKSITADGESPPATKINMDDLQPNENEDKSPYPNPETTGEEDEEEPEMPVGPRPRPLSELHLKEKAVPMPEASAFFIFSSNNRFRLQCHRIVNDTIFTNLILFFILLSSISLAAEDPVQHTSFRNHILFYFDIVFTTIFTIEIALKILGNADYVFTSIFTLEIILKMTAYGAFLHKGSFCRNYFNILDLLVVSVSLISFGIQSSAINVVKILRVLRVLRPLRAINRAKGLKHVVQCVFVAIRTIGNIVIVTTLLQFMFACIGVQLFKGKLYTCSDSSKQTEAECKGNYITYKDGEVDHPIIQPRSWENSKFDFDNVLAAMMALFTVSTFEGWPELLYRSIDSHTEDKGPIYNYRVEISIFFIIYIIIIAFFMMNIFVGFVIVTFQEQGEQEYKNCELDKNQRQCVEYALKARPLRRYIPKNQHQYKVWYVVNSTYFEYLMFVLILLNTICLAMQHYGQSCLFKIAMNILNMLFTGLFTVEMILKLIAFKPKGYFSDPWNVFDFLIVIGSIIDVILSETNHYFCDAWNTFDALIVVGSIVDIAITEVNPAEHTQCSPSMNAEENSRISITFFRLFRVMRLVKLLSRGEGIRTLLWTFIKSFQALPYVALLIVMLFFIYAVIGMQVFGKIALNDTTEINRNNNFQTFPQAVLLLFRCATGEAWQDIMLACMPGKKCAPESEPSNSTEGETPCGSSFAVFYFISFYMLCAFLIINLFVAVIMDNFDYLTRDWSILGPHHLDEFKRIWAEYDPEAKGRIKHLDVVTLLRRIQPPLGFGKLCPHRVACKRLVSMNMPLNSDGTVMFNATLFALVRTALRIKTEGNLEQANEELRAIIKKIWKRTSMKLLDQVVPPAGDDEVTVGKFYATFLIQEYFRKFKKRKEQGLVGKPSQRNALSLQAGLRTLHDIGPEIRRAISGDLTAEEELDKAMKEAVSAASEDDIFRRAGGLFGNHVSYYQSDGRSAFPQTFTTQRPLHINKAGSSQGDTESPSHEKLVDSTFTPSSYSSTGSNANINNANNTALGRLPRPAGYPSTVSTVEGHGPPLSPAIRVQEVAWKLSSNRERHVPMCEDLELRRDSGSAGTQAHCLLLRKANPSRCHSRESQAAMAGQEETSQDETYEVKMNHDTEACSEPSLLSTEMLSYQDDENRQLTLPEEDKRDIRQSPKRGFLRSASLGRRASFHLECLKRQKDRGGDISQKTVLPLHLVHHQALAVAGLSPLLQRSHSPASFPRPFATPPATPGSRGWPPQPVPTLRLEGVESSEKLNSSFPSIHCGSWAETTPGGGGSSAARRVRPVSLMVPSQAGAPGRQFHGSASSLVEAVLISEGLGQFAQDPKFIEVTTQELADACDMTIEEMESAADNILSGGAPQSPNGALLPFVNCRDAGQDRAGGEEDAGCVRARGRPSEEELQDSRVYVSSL
Sequence of Human Cav1.2/β3/α2δ-1 Calcium Channel Membranes (α2δ-1 subunit) (P54284 whole entry partner): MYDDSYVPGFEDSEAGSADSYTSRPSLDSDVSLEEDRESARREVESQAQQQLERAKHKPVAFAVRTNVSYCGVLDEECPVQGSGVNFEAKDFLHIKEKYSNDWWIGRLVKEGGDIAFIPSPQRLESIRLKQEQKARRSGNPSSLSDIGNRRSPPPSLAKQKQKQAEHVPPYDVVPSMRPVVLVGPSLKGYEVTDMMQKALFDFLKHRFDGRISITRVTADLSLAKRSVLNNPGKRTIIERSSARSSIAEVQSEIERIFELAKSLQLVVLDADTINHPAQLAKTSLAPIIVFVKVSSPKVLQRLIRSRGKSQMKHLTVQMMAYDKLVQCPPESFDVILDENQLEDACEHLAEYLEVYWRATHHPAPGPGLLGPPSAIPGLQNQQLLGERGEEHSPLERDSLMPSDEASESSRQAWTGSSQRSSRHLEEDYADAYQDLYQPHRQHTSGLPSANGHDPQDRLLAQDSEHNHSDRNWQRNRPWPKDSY

Q: With `CCNC[C@]1(Cc2nnn[nH]2)C[C@H]2CC(CC)=C[C@H]21` (racemic) [Formula 1 (Racemic), Racemic N-(((1R,5S,6S)-6-((1H-tetrazol-5-yl)methyl)-3-ethylbicyclo[3.2.0]hept-3-en-6-yl)methyl)ethanamine] as the compound, how does the IC50 read?
A: ≥ 0.5 µM

Q: For `CCC1=C[C@@H]2[C@H](C1)C[C@]2(CN)Cc1nn[nH]n1` (racemic) [Formula 2 (Racemic), Racemic ((1R,5S,6S)-6-((1H-tetrazol-5-yl)methyl)-3-ethylbicyclo[3.2.0]hept-3-en-6-yl)methanamine], which IC50 is on record?
A: 0.0042 µM

Q: For `CCC1=C[C@@H]2[C@H](C1)C[C@]2(CN)Cc1nc(=O)o[nH]1` (racemic) [Formula 3 (Racemic), Racemic 3-(((1R,5S,6S)-6-(aminomethyl)-3-ethylbicyclo[3.2.0]hept-3-en-6-yl)methyl)-1,2,4-oxadiazol-5(4H)-one], which IC50 is on record?
A: 0.019 µM

Q: For `CCC1=CC2C(C1)C[C@@]2(CN)Cc1nn[nH]n1` (single isomer, unassigned) [Formula 2 peak 1 (Chiral)], which IC50 is on record?
A: 0.165 µM

Q: For `CCC1=CC2C(C1)C[C@]2(CN)Cc1nn[nH]n1` (single isomer, unassigned) [Formula 2 peak 2 (chiral)], which IC50 is on record?
A: 0.0021 µM

Q: For `CC(C)CC(CN)CC(=O)O` (stereo not drawn) [Pregabalin, reference compound], which IC50 is on record?
A: 0.023 µM

tested on: human recombinant CACNA2D1 (Voltage-Gated Calcium Channel subunit α2δ-1 fragment); assay: Biacore surface plasmon resonance kinetic binding analysis on immobilised CACNA2D1; conditions: SPR, CM5 chip, BSA reference subtracted
Description: Method for determining kinetic binding parameters (association and dissociation rates) and affinities (KD) of GABA analogues to α2δ-1subunits.
It is well known in the art that binding affinity can be expressed as KD or equilibrium dissociation constant, whereby increasing binding affinity correlates with decreasing KD, which can be calculated from kinetic binding constants. Kinetic binding analysis of GABA analogues to α2δ-1subunits can be determined by surface plasmon resonance technology applied in Biacore™ SPR instruments (Biacore, GE Healthcare, Uppsala). Kinetic association rates (ka; k-on) and dissociation rates (kd; k-off) are obtained. Equilibrium dissociation constant (KD; affinity) values are calculated as k-off/k-on.
This example discloses that the GABA analogues ((1R,5S,6S)-6-((1H-tetrazol-5-yl)methyl)-3-ethylbicyclo[3.2.0]hept-3-en-6-yl)methanamine (“Test Compound”: prepared as described in Example 2) and (1R,5S,6S)-6-(aminomethyl)-3-ethylbicyclo[3.2.0]hept-3-en-6-yl]acetic acid (“Reference Compound”: prepared as described in WO 2010/079668 and US 2012/0071685A1) are capable of binding to a recombinant fragment of human Voltage-Gated Calcium Channel subunit (α2δ-1, CACNA2D1). […]

Q: Which “Specific binding to human CACNA2D1 recombinant protein” value does the source give for `CCC1=C[C@@H]2[C@H](C1)C[C@]2(CN)CC(=O)O` [Reference Compound, reference compound] here?
A: able to specifically bind

Q: With `CCC1=C[C@@H]2[C@H](C1)C[C@]2(CN)Cc1nnn[nH]1` [Test Compound, ((1R,5S,6S)-6-((1H-tetrazol-5-yl)methyl)-3-ethylbicyclo[3.2.0]hept-3-en-6-yl)methanamine] as the compound, how does the “Specific binding to human CACNA2D1 recombinant protein” value read?
A: able to specifically bind
